Experiment [1] relates to isolated segment of guinea pig colon. The following applies: Wade et al. 1996; slower as dose increased; cited from earlier work.
Another experiment has as its system intestinal transit. Put plainly: Intestinal transit in multi-fistulated dogs, cumulative % recovery of 99mTc-DTPA. Format: in vivo, dog. The following applies: n=2. An excerpt:
The experiments described below are based on a previously described chronic multi-fistulated dog model, employing surgically fistulated male or female mongrel dogs weighing about 25 kg each. (Lin, H. C. et al., Inhibition of gastric emptying by glucose depends on length of intestine exposed to nutrient, Am. J. Physiol. 256:G404-G411 [1989]). The small intestines of the dogs were each about 300 cm long from the pylorus to the ileal-cecal valve. The duodenal fistula was situated 15 cm from the pylorus; the mid-gut fistula was situated 160 cm from the pylorus. Occluding Foley catheters (balloon catheters that are inflated to produce a water-tight seal with the lumenal surface) were placed into the distal limb of a duodenal fistula and a mid-gut fistula, fat or other test agents were administered lumenally to the thus compartmentalized Aproximal≅ section of the gut, i.e., between the fistulas, or to the compartmentalized Adistal≅ section of the gut, i.e., beyond the mid-gut fistula. Perfusate was pumped into a test section through the catheter at a rate of 2 mL/minute. Test agents were administered along with buffer perfusate, but some test agents were administered intravenously, where specifically noted.
Intestinal transit measurements were made by tracking the movement of a liquid marker across the approximately 150 cm intestinal test segment by delivering about 20 μCi ^99mTc chelated to diethyltriamine pentaacetic acid (DTPA)(Cunningham, K. M. et al., Use of technicium-99m (V)thiocyanate to measure gastric emptying of fat, J. Nucl. Med. 32:878-881 [1991]) as a bolus into the test segment after 60 minutes of a 90-minute perfusion. The output from the mid-gut fistula was collected every 5 min thereafter for 30 minutes, which period is illustrated in FIGS. 9-23. Using a matched dose of ^99mTc to represent the original radioactivity (Johansson, C., Studies of gastrointestinal interactions, Scand. J. Gastroenterol. 9(Suppl 28):1-60 [1974]; Zierler, K., A simplified explanation of the theory of indicator dilution for measurement of fluid flow and volume and other distributive phenomena, Bull. John Hopkins 103:199-217 [1958]), the radioactivity delivered into the animal as well as the radioactivity of the recovered fistula output were all measured using a gamma well counter. After correcting all counts to time zero, intestinal transit was calculated as the cumulative percent recovery of the delivered ^99mTc-DTPA. This method has been well validated over the years and appreciated for its advantage of minimal inadvertent marker loss. […] There was a very high level of marker recovery, with 90% of the marker recovered by 30 minutes and 98% of the marker recovered by 45 minutes.

The next experiment deals with isolated canine ileum. Particulars: infused into isolated canine ileum; Fox-Threlkeld et al. 1993; cited from earlier work.
The test system of experiment [2] is release of 5-HT from the proximal gut. Put plainly: 5-HT released by the proximal gut (ELISA of mid-gut fistula output). Format: in vivo, dog. Particulars: intravenous PYY (0.8 mg/kg/h); Control 140.1 μg. Here is the method: To test the hypothesis that fat in the distal gut causes the release of 5-HT in the proximal gut, the amount of 5-HT collected from the output of the mid-gut fistula (proximal gut 5-HT) over a 90-minute period of buffer perfusion through both the duodenal and mid-gut fistulas (2 mL/min); buffer (control) or oleate (60 mM) was administered to the distal gut (n=1). The amount of 5-HT was determined using an ELISA kit specific for 5-HT (Sigma; Graham-Smith, D. G., The carcinoid syndrome, In: Topics in Gastroenterology, Truclove, S. C. and Lee, E. (eds.), Blackwells, London, p. 275 [1977]; Singh, S. M. et al., Concentrations of serotonin in plasma-a test for appendicitis?, Clin. Chem. 34:2572-2574 [1988]). The amount of 5-HT released by the proximal gut increased in response to fat in the distal gut from 100 μg in the control (buffer minus oleate) to 338 μg (buffer plus oleate to distal gut), showing that 5-HT is released in the proximal gut in response to fat in the distal gut. Thus, the release of 5-HT by the proximal gut can serve as a relayed signal for fat in the distal gut. The relayed release of 5-HT in the proximal gut in response to fat in the distal gut is consistent with Example 14(2), showing that slowing of intestinal transit by fat depends on an efferent 5-HT-mediated pathway to the proximal gut.
To test the hypothesis that 5-HT in the distal gut causes the release of 5-HT in the proximal gut, the amount of 5-HT collected from the output at the mid-gut fistula (Proximal gut 5-HT) over a 90-minute period of buffer perfusion through both the duodenal and mid-gut fistulas (2 mL/min each) was compared in the presence or absence of 5-HT (0.05 mg/kg/h) administered to the distal gut (n=1). 5-HT concentration was determined using an ELISA kit specific for 5-HT (Sigma). The amount of 5-HT released by the proximal gut increased from 156 μg in the control (minus distal 5-HT) to 450 μg (plus 5-HT to distal gut), implying that 5-HT is released by the proximal gut in response to 5-HT in the distal gut. Thus, the release of 5-HT by the proximal gut can serve as a relayed signal for distal gut 5-HT. This relayed release of 5-HT in the proximal gut explains the results of Example 14(6) showing that the slowing of intestinal transit by distal gut 5-HT was abolished by ondansetron in the proximal gut (efferent limb of response) as well as in the distal gut (afferent limb of response).
To test the hypothesis that the proximal gut releases 5-HT in response to lipid in the distal gut, we compared the amount of 5-HT in the output of the midgut fistula (i.e., proximal gut 5-HT) with buffered saline (control) or oleate in the distal gut. The amount of 5-HT collected over 90 min was measured using a 5-HT-specific ELISA test kit, as described herein above. Four dogs were tested.
The amount of 5-HT released from the proximal gut in response to intravenous PYY or buffered saline (Control) during buffer perfusion (2 mL/min over 90 minutes) through both the duodenal and mid-gut fistulas was measured to test the hypothesis that intravenous PYY (0.8 mg/kg/h) causes the release of 5-HT in the proximal gut. 5-HT was measured as in Example 14(9) above. The amount of 5-HT released by the proximal gut increased from 140.1 μg (Control) to 463.1 μg in response to intravenous PYY.
In general terms: An ELISA detects its analyte on a solid surface through an enzyme-linked reagent.

For the compound `CNCCC(Oc1ccc(C(F)(F)F)cc1)c1ccccc1` (centres unmarked) [fluoxetine], in experiment [1], the “passage of a pellet through an isolated segment of guinea pig colon” value is on record as “initially accelerated”.
With “PYY: Peptide YY, a physiological fat signal molecule that slows transit”, the marker recovery in the experiment with intestinal transit (30 μg PYY (0.8 mg/kg/h) intravenously, Buffer Control 78.1±2.2%) was determined as 11.8±5.4%; with intestinal transit (IV PYY 0.8 μg/kg/h + lumenal normal saline, control 75.1±3.6%) it was 17.1±11.0%. In addition, in the experiment with isolated canine ileum, the “phasic circular muscle activity” value is listed as “dose-dependently increased”. Also, the “amount of 5-HT released by the proximal gut” value in experiment [2] was 463.1 µg.
